Experimental findings from patent US11478451B1, “Macrocyclic chlorine substituted indole derivatives” (Bayer Aktiengesellschaft, priority 2017, dated 2022) are described below.

Data set [1] deals with SUDHL5 cells. As to the kind of experiment: Induction of cytotoxicity (CellTiter-Glo, 5 h), SUDHL5. The settings on record: SUDHL5, 5 h. On the technique in general: ATP-based viability assays read luminescence as a measure of living cells.
In data set [2] the test system is SUDHL10 cells. As to the kind of experiment: Induction of cytotoxicity (CellTiter-Glo, 5 h), SUDHL10. Conditions: SUDHL10, 5 h.
Method: Therefore, cytotoxicity assays were run in parallel in SUDHL5 and SUDHL10 cells.
The different cell lines were plated in culture medium (RPMI 1640 [GIBCO #22400-089] supplemented with 10% Fetal Bovine Serum) at a density of 3,300 cells in 30 μL/well in a sterile, solid black, flat bottom, polystyrene, TC-treated 384-well microplate (Corning #3571) using Multidrop Combi Reagent Dispenser. As a control, medium without cells was also added to the plate. Cells were incubated in a humidified incubator at 37° C. overnight. […] Rim wells were excluded. The cells were incubated for 5 h hours in a humidified incubator at 37° C. After this incubation, 30 μL of CellTiter-Glo® Luminescent Cell Viability reagent (Promega, G7573) was added to each well using the Multidrop Combi Reagent Dispenser, followed by 15 min incubation on a shaker at room temperature. Finally, luminescence was read at 0.1 ms, with a gain of 3000 using the PHERAstar FS microplate reader (BMG Labtech).
Data set [3] deals with SNU-389 cells. As to the kind of experiment: Antiproliferation assay (CellTiter-Glo, 72 h), SNU-389. Type of data set: cell-based. Conditions: 72 h; read-out: Antiproli SNU-389 [M] median. On the procedure:
(§1) Assessment of the Anti-Proliferative Effect of Compounds in Different Cell Lines
(§2) The impact of compounds on the proliferation of different cell lines was assessed using the CellTiter-Glo® Luminescent Cell Viability reagent from Promega (G7573).
(§3) In parallel, cells were plated in a reference (day 0) plate for time zero determination.
(§4) Rim wells were excluded. The cells were incubated for 72 h hours in a humidified incubator at 37° C. The day 0 plate was measured by adding 30 μL/well of CTG solution (CellTiter-Glo® Luminescent Cell Viability reagent, Promega G7573) to time zero wells in the reference plate followed by a 10 minutes incubation and luminescence reading at 0.1 ms. using the PHERAstar FS microplate reader (BMG Labtech).
(§5) After 72 h incubation, the treated plates were measured in the same way as the day 0 plate mentioned above.

Data set [4] has as its system DMS-114 cells. As to the kind of experiment: Antiproliferation assay (CellTiter-Glo, 72 h), DMS-114. Type of data set: cell-based. Conditions: Homo sapiens, DMS-114, 72 h; read-out: Antiproli DMS-114 [M] median. On the procedure:
as §1, §2, §3, §4, §5

Data set [5] has as its system SUDHL10 cells. As to the kind of experiment: Induction of caspase-3/7 activity (Caspase-Glo 3/7), SUDHL10. Type of data set: cell-based. The settings on record: EC50, median, SUDHL10, 3 h treatment. In a few lines: (§6)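 Read-out: Caspase-Glo 3/7 signal, background-corrected against medium-only wells, taken after cells had been incubated with compounds for 3 h at 37 °C.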

Data set [6] deals with AMO-1 cells. In words: Antiproliferation assay (CellTiter-Glo, 72 h), AMO-1. Type of data set: cell-based. The settings on record: IC50, median, AMO-1, 72 h, read-out: Antiproli AMO-1 [M] median. In a few lines: (§7)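 Treated cells sat 72 h in a humidified 37 °C incubator, outer wells unused, before CellTiter-Glo reagent and a 10 min wait preceded luminescence reading; identical measurement of a parallel day 0 plate defined time zero.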

Data set [7] has as its system HMC-1-8 cells. In words: Antiproliferation assay (CellTiter-Glo, 72 h), HMC-1-8. Type of data set: cell-based. Conditions: IC50, median, HMC-1-8, 72 h, read-out: Antiproli HMC-1-8 [M] median. In a few lines: as §7
The subject of data set [8] is SUDHL5 cells. As to the kind of experiment: Antiproliferation assay (CellTiter-Glo, 72 h), SUDHL5. Type of data set: cell-based. Conditions: IC50, median, SUDHL5, 72 h, read-out: Antiproli SUDHL5 [M] (median). In a few lines:
as §7

Data set [9] has as its system SUDHL5 cells. As to the kind of experiment: Induction of caspase-3/7 activity (Caspase-Glo 3/7), SUDHL5. Type of data set: cell-based. Conditions: EC50, median, SUDHL5, 3 h treatment. In a few lines: as §6
Where [10] appears, read: Homo sapiens, SU-DHL10, 5 h, read-out: Cytotox SUDHL10 [M] (median), IC50, median.
[11] abbreviates: read-out: Cytotox SUDHL5 [M] (median), IC50, median.
Where [12] appears, read: read-out: Cytotox SUDHL10 [M] (median), IC50, median.

Structures can show the parent of a compound that is named as a salt. Where two headings read alike, the source gives them in different places.

`CCc1nn(C)c2c1-c1c(Cl)ccc3c(CCCOc4cccc5cc(F)ccc45)c(C(=O)O)n(c13)CCCCN(C)C2` (racemic) [Example 39, (rac)-4-chloro-3-ethyl-7-{3-[(6-fluoronaphthalen-1-yl)oxy]propyl}-1,14-dimethyl-10,11,12,13,14,15-hexahydro-1H-pyrazolo[3′,4′:8,9][1,6]diazacycloundecino[10,11,1-hi]indole-8-carboxylic acid]: the IC50 is 1.5e-07 M in data set [1] (Homo sapiens, SU-DHL-5, 5 h, read-out: Cytotox SUDHL5 [M] (median), IC50, median); 2.4e-07 M in [2] (setting [10]); 1.09e-06 M in data set [3]; 6.38e-07 M in [4]; 2.4e-07 M in data set [6] (Homo sapiens, AMO1, 72 h); 3.3e-06 M in data set [7] (72 h). A half-maximal response in data set [5] (Homo sapiens, SU-DHL10, 3 h) (EC50) required 150 nM.

Regarding `Cc1c2c(nn1C)COCCn1c(C(=O)O)c(CCCOc3cccc4ccccc34)c3ccc(Cl)c-2c31` (racemic) [Example 87, (rac)-11-chloro-9,10-dimethyl-1-{3-[(naphthalen-1-yl)oxy]propyl}-4,5,7,9-tetrahydropyrazolo[4′,3′:7,8][1,4]oxazonino[6,5,4-hi]indole-2-carboxylic acid], the IC50 in data set [8] (Homo sapiens, SU-DHL-5, 72 h) amounted to 5.5e-07 M; in [2] (setting [10]), 2.6e-07 M; in data set [3], 1.52e-06 M; in data set [4] it was 1.32e-06 M; in data set [6] (Homo sapiens, AMO1, 72 h), 3.8e-07 M; in [7] (72 h), 4.7e-06 M. Besides, the EC50 – broadly, the concentration at which the effect is half-maximal – in data set [9] (Homo sapiens, SU-DHL-5, 3 h) was 170 nM; in [5] (Homo sapiens, SU-DHL10, 3 h), 210 nM.

In the case of `CCc1c2c(nn1C)CN(C)CCCCn1c(C(=O)O)c(CCCOc3cccc4cc(F)ccc34)c3ccc(Cl)c-2c31` (single isomer, unassigned; enantiomer 1) [Example 6, 4-chloro-3-ethyl-7-{3-[(6-fluoronaphthalen-1-yl)oxy]propyl}-2,14-dimethyl-10,11,12,13,14,15-hexahydro-2H-pyrazolo[3′,4′:8,9][1,6]diazacycloundecino[10,11,1-hi]indole-8-carboxylic acid (Enantiomer 1)], the IC50 was 1.5e-07 M in data set [1] (setting [11]); 3.6e-07 M in [2] (setting [12]); 6.96e-07 M in data set [3]; 4.97e-07 M in data set [4]; 2.4e-07 M in data set [6]; 3.4e-06 M in data set [7] (72 h). It took 220 nM to reach a half-maximal effect in [5] (Homo sapiens, SU-DHL10, 3 h) (EC50).

Regarding `CCc1c2c(nn1C)CN(C)CCCCn1c(C(=O)O)c(CCCOc3cccc4ccccc34)c3ccc(Cl)c-2c31` (single isomer, unassigned; enantiomer 1) [Example 23, 4-chloro-3-ethyl-2,14-dimethyl-7-[3-(naphthalen-1-yloxy)propyl]-10,11,12,13,14,15-hexahydro-2H-pyrazolo[3′,4′:8,9][1,6]diazacycloundecino[10,11,1-hi]indole-8-carboxylic acid (Enantiomer 1)], the IC50 in data set [3] worked out at 1.7e-06 M; in data set [4], 2.06e-06 M; in [6] (Homo sapiens, AMO1, 72 h) it was 6.1e-07 M; in [7] (72 h), 5.2e-06 M. In [5] (Homo sapiens, SU-DHL10, 3 h), this molecule gave an EC50 of 180 nM.

For `CCc1c2c(nn1C)COCCCCn1c(C(=O)O)c(CCCOc3cccc4cc(F)ccc34)c3ccc(Cl)c-2c31` (single isomer, unassigned; enantiomer 1) [Example 37, (+)-4-chloro-3-ethyl-7-{3-[(6-fluoronaphthalen-1-yl)oxy]propyl}-2-methyl-2,10,11,12,13,15-hexahydropyrazolo[4′,3′:9,10][1,6]oxazacycloundecino[8,7,6-hi]indole-8-carboxylic acid-N-ethylethanamine salt (Enantiomer 1)], the IC50 in [2] (setting [10]) was 4.3e-07 M; in data set [3] it was 1.05e-06 M; in data set [4] it was 1.12e-06 M; in data set [6] (Homo sapiens, AMO1, 72 h) it was 3.6e-07 M; in [7] (72 h) it was 1.6e-06 M. This molecule also registered an EC50 in [5] (Homo sapiens, SU-DHL10, 3 h) of 330 nM.

As for `Cc1c2c(nn1C)COCC(F)(F)CCn1c(C(=O)O)c(CCCOc3cccc4ccccc34)c3ccc(Cl)c-2c31` (single isomer, unassigned; enantiomer 1) [Example 56, 4-chloro-12,12-difluoro-2,3-dimethyl-7-{3-[(naphthalen-1-yl)oxy]propyl}-2,10,11,12,13,15-hexahydropyrazolo[4′,3′:9,10][1,6]oxazacycloundecino[8,7,6-hi]indole-8-carboxylic acid-N-ethylethanamine salt—Enantiomer 1], the IC50 in [1] (setting [11]) stood at 2.2e-07 M; in [8] it was 3.4e-07 M; in [2] (setting [12]) it was 3.3e-07 M; in [3], 1.23e-06 M; in data set [4], 7.79e-07 M; in data set [6], 4.4e-07 M. The IC50 in data set [7] was 3.3e-06 M. Further, the values for the 50% effective concentration (EC50) in data set [9] and in data set [5] were 130 nM and 310 nM, respectively.

For the molecule `Cc1c2c(nn1C)CN(CC(F)(F)F)CCCCn1c(C(=O)O)c(CCCOc3cccc4cc(F)ccc34)c3ccc(Cl)c-2c31` (single isomer, unassigned; enantiomer 1) [Example 59, 4-chloro-7-{3-[(6-fluoronaphthalen-1-yl)oxy]propyl}-2,3-dimethyl-14-(2,2,2-trifluoroethyl)-10,11,12,13,14,15-hexahydro-2H-pyrazolo[3′,4′:8,9][1,6]diazacycloundecino[10,11,1-hi]indole-8-carboxylic acid—Enantiomer 1], the IC50 in data set [1] (setting [11]) was 8e-07 M; in data set [8], 1.1e-06 M; in [2] (setting [10]), 1.2e-06 M; in data set [3], 3.79e-06 M; in data set [4], 3.21e-06 M; in data set [6] (Homo sapiens, AMO1, 72 h) it was 1.5e-06 M. The EC50 in data set [9] is 350 nM; in [5] (Homo sapiens, SU-DHL10, 3 h), 1000 nM.

In the case of `CCc1c2c(nn1C)CN(CCC1CCOCC1)CCCCn1c(C(=O)O)c(CCCOc3cccc4cc(F)ccc34)c3ccc(Cl)c-2c31` (single isomer, unassigned; enantiomer 1) [Example 136, 4-chloro-3-ethyl-7-{3-[(6-fluoronaphthalen-1-yl)oxy]propyl}-2-methyl-14-[2-(oxan-4-yl)ethyl]-10,11,12,13,14,15-hexahydro-2H-pyrazolo[3′,4′:8,9][1,6]diazacycloundecino[10,11,1-hi]indole-8-carboxylic acid N-ethylethanamine salt (Enantiomer 1)], the results for the IC50 in [3], in data set [4] and in data set [7] (72 h) were 3.85e-07 M, 2.35e-07 M and 7.3e-07 M, respectively.

Take `CCc1nn(C)c2c1-c1c(Cl)ccc3c(CCCOc4cccc5cc(F)ccc45)c(C(=O)O)n(c13)CCCCN(C)C2` (single isomer, unassigned; enantiomer 2) [Example 41, 4-chloro-3-ethyl-7-{3-[(6-fluoronaphthalen-1-yl)oxy]propyl}-1,14-dimethyl-10,11,12,13,14,15-hexahydro-1H-pyrazolo[3′,4′:8,9][1,6]diazacycloundecino[10,11,1-hi]indole-8-carboxylic acid (Enantiomer 2)]: the IC50 amounted to 1.5e-07 M in data set [8]; 5.56e-07 M in data set [3]; 3.65e-07 M in data set [4]; 5.4e-07 M in data set [6]; 7e-07 M in data set [7] (72 h).

Regarding `CCc1c2c(nn1C)CN(CCOC)CCCCn1c(C(=O)O)c(CCCOc3cccc4cc(F)ccc34)c3ccc(Cl)c-2c31` (single isomer, unassigned; enantiomer 2) [Example 133, 4-chloro-3-ethyl-7-{3-[(6-fluoronaphthalen-1-yl)oxy]propyl}-14-(2-methoxyethyl)-2-methyl-10,11,12,13,14,15-hexahydro-2H-pyrazolo[3′,4′:8,9][1,6]diazacycloundecino[10,11,1-hi]indole-8-carboxylic acid N-ethylethanamine salt (Enantiomer 2)], the IC50 was 4.97e-07 M in data set [3], 3.85e-07 M in data set [4] and 1e-06 M in data set [7] (72 h).
